According to patent US20220041641A1, “QUATERNARY AMMONIUM SALTS AS INHIBITORS OF TRIMETHYLAMINE PRODUCTION” (Senda Biosciences, Inc., priority 2018, published 2022):
Several values for one entry are separate records, joined by “and”; a condition that tells them apart may be missing. Equal values may be shown once. Read-outs that look alike come from different tables or passages of the source.

How the values were obtained:
[1] = Caco-2 permeability assay; format: in vitro ADME; conditions: human
Experimental: Preparation of Caco-2 Cells: 50 μL and 25 mL of cell culture medium were added to each well of the Transwell insert and reservoir, respectively. The HTS transwell plates were incubated at 37° C., 5% CO2 for 1 hour before cell seeding. […] Cell culture medium was replaced every other day, beginning no later than 24 hours after initial plating.
Assessment of Cell Monolayer Integrity: Medium was removed from the reservoir and each Transwell insert and replaced with prewarmed fresh culture medium. Transepithelial electrical resistance (TEER) across the monolayer was measured using Millicell Epithelial Volt-Ohm measuring system (Millipore, USA). The Plate was returned to the incubator once the measurement was done. The TEER value was calculated according to the following equation: […]
Preparation of Solutions: 2 mM stock solutions in DMSO of control compounds were prepared and diluted with HBSS (10 mM HEPES, pH 7.4) to get 10 μM working solution. 0.2 mM stock solutions of test compounds in DMSO were prepared and diluted with HBSS (10 mM HEPES, pH 7.4 with 0.5% BSA) to get 1 μM working solution. Metoprolol, erythromycin and cimetidine were used as control compounds.
The Caco-2 plate was removed from the incubator. The monolayer was washed twice with pre-warmed HBSS (10 mM HEPES, pH 7.4). The plate was incubated at 37° C. for 30 minutes. To determine the rate of drug transport in the apical to basolateral direction, 125 μL of the working solution was added to the Transwell insert (apical compartment). A 50 μL sample was transferred immediately from the apical compartment to 200 μL of acetonitrile containing IS (100 nM alprazolam, 200 nM Caffeine and 100 nM tolbutamide) in a new 96-well plate as the initial donor sample (A-B) and it was vortexed at 1000 rpm for 10 minutes. The wells in the receiver plate (basolateral compartment) were filled with 235 μL of transport buffer. To determine the rate of drug transport in the basolateral to apical direction, 285 μL of the working solution were added to the receiver plate wells (basolateral compartment). A 50 μL sample was transferred immediately from the basolateral compartment to 200 μL of acetonitrile containing IS (100 nM alprazolam, 200 nM Caffeine and 100 nM tolbutamide) in a new 96-well plate as the initial donor sample (B-A) and it was vortexed at 1000 rpm for 10 minutes. The Transwell insert (apical compartment) was filled with 75 μL of transport buffer. The apical to basolateral direction and the basolateral to apical direction need to be done at the same time. The plates were incubated at 37° C. for 2 hours. At the end of the incubation, 50 μL samples from donor sides (apical compartment for Ap→Bl flux, and basolateral compartment for B1→Ap) and receiver sides (basolateral compartment for Ap→Bl flux, and apical compartment for B1→Ap) were transferred to wells of a new 96-well plate, followed by the addition of 4 volume of acetonitrile containing IS (100 nM alprazolam, 200 nM Caffeine and 100 nM tolbutamide). Samples were vortexed for 10 minutes, 50 μL samples were transferred to wells of a new 96-well plate, followed by the addition of 50 μL Hepes and 200 μL IS. All samples were vortexed for 10 minutes, and then centrifuged at 3,220 g for 40 minutes. An aliquot of 150 μL of the supernatant was mixed with an appropriate volume of ultra-pure water before LC-MS/MS analysis.
Apparent permeability (Papp) can be calculated for drug transport assays using the following equation: […]
Papp is apparent permeability (cm/s×10^−6);
Papp (B-A) indicates the apparent permeability coefficient in basolateral to apical direction, and
Papp (A-B) indicates the apparent permeability coefficient in apical to basolateral direction.

[2] = biological target: CutC from Clostridium sporogenes (Clostridium sporogenes, UniProt A0AAE4Z0A8); test: Cell-based assay for TMA production from a native producer (C. sporogenes); conditions: read-out: IC50 Whole cell C. sporogenes; d9-TMA from 1 mM d9-choline, 5 h, 37° C.; run once; value 10 given when no fit or % TMA remaining at 10 μM higher than 15%
Chain of CutC from Clostridium sporogenes (A0ABD6RTF0 entry or part of it): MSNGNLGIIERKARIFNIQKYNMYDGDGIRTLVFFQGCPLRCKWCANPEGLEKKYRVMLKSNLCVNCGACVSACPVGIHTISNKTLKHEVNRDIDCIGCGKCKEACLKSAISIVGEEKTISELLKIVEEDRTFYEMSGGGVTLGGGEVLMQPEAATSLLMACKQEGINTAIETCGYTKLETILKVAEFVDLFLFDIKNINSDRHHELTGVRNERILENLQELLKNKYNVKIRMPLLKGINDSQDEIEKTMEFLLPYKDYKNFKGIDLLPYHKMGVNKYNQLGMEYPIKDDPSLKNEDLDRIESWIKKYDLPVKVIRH
Chain of CutC from Clostridium sporogenes (A0AAE4Z0A8 entry or part of it): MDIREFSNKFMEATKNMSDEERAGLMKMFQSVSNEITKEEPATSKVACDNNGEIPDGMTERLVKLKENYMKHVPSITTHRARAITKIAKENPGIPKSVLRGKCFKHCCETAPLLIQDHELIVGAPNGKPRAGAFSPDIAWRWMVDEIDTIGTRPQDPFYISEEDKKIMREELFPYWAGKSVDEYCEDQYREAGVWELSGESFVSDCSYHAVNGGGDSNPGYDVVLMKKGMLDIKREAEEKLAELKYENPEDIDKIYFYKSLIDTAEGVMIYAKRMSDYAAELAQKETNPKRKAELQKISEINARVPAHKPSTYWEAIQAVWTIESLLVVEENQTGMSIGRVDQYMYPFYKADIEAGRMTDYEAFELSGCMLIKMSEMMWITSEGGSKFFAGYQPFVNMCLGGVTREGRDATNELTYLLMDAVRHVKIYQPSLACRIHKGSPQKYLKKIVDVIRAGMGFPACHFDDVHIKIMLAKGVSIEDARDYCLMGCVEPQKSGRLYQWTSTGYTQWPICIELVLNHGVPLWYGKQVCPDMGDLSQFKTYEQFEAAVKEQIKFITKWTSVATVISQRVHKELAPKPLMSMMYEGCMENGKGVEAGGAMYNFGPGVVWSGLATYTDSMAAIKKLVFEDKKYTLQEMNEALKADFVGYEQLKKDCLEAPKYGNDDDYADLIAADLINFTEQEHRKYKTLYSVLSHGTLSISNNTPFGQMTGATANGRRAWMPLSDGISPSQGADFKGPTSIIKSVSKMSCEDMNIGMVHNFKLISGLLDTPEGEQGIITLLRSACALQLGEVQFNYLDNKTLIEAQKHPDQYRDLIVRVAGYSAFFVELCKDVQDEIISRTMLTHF
Text: In each bacterium, CutC was modified into its activated form by a cognate activating enzyme, CutD (protein EDU36696.1 for C. sporogenes; protein WP_004249185.1 for P. mirabilis). […] Trimethylamine may subsequently be converted by human enzymes such as flavin monooxygenase 3 to trimethylamine N-oxide, which might be associated with negative health consequences in humans.
A compound's ability to inhibit CutC from Proteus mirabilis and C. sporogenes from converting choline into trimethylamine was tested in cells as described. A BHI blood plate was inoculated with a frozen stock of Proteus mirabilis or Clostridium sporogenes under anaerobic conditions. A single colony was isolated from the plate and inoculated into 5 mL BHI supplemented with 1 mM choline under anaerobic conditions. The liquid cultures were grown overnight at 37° C.
To prepare each sample, 300 μL of the saturated culture was then inoculated into a 30 mL dilution blank under anaerobic conditions. 1 mM (trimethyl-d9)-choline and a sufficient amount of a compound to obtain a final concentration of 10 μM were added to the inoculated dilution blank. […] The mixture was incubated at 37° C. for 5 h. […] After centrifugation, the samples were analyzed by LCMS to determine the amount of d9-TMA produced.

[3] = biological target: CutC from Proteus mirabilis (Proteus mirabilis, UniProt B4EYG1); test: Cell-based assay for TMA production from a native producer (P. mirabilis); conditions: d9-TMA from 1 mM d9-choline, 5 h, 37° C.; value 10 given when no fit or % TMA remaining at 10 μM higher than 15%; read-out: Average IC50 Whole cell P. mirabilis
Chain of CutC from Proteus mirabilis (B4EYG1 entry or part of it): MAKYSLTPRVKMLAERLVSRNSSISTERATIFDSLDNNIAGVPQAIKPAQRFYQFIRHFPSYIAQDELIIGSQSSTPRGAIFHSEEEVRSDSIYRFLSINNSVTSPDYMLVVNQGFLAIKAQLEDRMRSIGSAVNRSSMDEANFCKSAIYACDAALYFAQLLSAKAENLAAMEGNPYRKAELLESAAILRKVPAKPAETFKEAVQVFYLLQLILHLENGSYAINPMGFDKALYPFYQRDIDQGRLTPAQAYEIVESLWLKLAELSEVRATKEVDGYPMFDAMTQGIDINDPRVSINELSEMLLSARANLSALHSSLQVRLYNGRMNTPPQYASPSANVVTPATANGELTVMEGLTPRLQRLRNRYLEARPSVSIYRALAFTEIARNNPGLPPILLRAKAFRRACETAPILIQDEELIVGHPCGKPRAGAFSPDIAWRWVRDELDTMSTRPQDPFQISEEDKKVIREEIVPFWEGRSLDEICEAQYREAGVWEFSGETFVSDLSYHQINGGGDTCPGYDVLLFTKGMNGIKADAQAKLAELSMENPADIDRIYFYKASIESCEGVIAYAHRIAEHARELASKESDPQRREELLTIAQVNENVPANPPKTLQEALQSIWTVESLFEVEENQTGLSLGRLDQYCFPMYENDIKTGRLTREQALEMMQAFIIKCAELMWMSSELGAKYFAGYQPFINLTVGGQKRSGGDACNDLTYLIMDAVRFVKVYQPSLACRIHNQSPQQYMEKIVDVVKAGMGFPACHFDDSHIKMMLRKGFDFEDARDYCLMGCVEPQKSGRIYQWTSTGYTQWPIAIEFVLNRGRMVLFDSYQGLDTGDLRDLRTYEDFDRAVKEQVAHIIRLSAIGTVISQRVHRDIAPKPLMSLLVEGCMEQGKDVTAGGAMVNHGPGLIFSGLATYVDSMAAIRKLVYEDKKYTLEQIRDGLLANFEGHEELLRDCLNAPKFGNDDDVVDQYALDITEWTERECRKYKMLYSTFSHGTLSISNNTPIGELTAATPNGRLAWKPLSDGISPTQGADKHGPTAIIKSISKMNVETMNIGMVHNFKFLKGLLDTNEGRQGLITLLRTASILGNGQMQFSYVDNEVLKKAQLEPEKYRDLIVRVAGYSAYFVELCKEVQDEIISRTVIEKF
Chain of CutC from Proteus mirabilis (B4EYG0 entry or part of it, further chain): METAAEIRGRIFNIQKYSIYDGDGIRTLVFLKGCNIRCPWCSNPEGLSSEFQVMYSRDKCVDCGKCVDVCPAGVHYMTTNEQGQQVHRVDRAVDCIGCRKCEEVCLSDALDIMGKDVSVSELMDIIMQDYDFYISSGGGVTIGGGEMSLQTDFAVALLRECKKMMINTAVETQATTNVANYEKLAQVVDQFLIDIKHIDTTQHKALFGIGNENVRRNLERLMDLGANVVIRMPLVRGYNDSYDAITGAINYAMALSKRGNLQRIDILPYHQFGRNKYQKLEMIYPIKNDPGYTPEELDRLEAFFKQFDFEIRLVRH
In short: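 Overnight anaerobic cultures of P. mirabilis or C. sporogenes, grown in BHI with 1 mM choline, were diluted and given 1 mM (trimethyl-d9)-choline plus compound at 10 μM final. After 5 h at 37° C., d9-TMA was quantified by LCMS.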

[4] = system: CutC/D enzyme; test: Acute mouse model (plasma TMAO on choline diet); format: in vivo, male C57BL/6 mice
Experimental: The following acute mouse model may be used to determine inhibition of the CutC/D enzyme and thus the inhibition of the formation of trimethylamine (TMA) from choline.
On day 1, male C57BL/6 mice were given a chemically defined diet (Tekland Global Rodent Diet 2018) containing 1.0% choline (g/g) for the duration of the experiment. Concurrently on day 1, mice were orally gavaged with 200 μL of compounds of interest (formulated in water). Mice were orally gavaged with the compounds and vehicle control again on day 2 and day 3 at a fixed time. Twenty hours after the last gavage, mice were sacrificed, and plasma was collected and prepared for detection of trimethylamine-N-oxide (TMAO) via liquid chromatography with on-line tandem mass spectrometry (LC-MS/MS). Food consumption and mouse weight were measured each day.
Plasma samples were prepared for LCMS as follows: An aliquot of 20 μL plasma sample was protein precipitated with 200 μL internal standard solution (100 ng/mL Labetalol & 100 ng/mL Tolbutamide & 100 ng/mL Diclofenac in acetonitrile, the mixture was vortex-mixed and centrifuged at 4000 rpm for 15 min, 4° C. An aliquot of 100 μL supernatant was transferred to the sample plate for LCMS injection. 1 μL of sample was injected onto an LC column for TMAO LCMS analysis.
Concentrations of TMAO were determined with a calibration curve ranging 0.05-100 μM for d9-TMAO in control plasma.

[5] = pH 7.4, Caco-2, apical to basolateral, 1 μM, 2 hours, 37° C., read-out: Papp A-B
[6] = pH 7.4, Caco-2, basolateral to apical, 1 μM, 2 hours, 37° C., read-out: Papp B-A

## C[N+](C)(CCO)C1CC1.[I-] [Compound 111, N-(2-hydroxyethyl)-N,N-dimethylcyclopropanaminium Iodide]
[1]; Caco-2, pH 7.4
  Papp A→B at 2 h, 1 µM: 0.8 ×10⁻⁶ cm/s
  Papp B→A at 2 h, 1 µM: 0.8 ×10⁻⁶ cm/s
[2]
  IC50: 220 nM
[3]
  IC50: 140 nM and 270 nM

## C#CC[N+]1(C)CCCN1.[I-] (stereo not drawn) [Compound 125, 1-methyl-1-(prop-2-yn-1-yl)pyrazolidin-1-ium Iodide]
[1]; Caco-2, pH 7.4
  Papp A→B at 2 h, 1 µM: 0.466 ×10⁻⁶ cm/s
  Papp B→A at 2 h, 1 µM: 0.482 ×10⁻⁶ cm/s
[3]
  IC50: 190 nM
[4]; Table 4g, 9.8 mg/kg oral gavage days 1-3
  % change from vehicle control + choline diet: −6%
[4]; Table 4g, 9.8 mg/kg oral gavage days 1-3, plasma 20 h after last gavage
  Mean plasma TMAO: 26.2 µM
[4]; Table 4g, 97.7 mg/kg oral gavage days 1-3
  % change from vehicle control + choline diet: 18%
[4]; Table 4g, 97.7 mg/kg oral gavage days 1-3, plasma 20 h after last gavage
  Mean plasma TMAO: 32.8 µM

## C[N+]1(CF)CCC[C@H]1CO.[I-] (stereo partly drawn) [Compound 109, (2S)-1-(fluoromethyl)-2-(hydroxymethyl)-1-methylpyrrolidin-1-ium iodide]
[1]; Caco-2, pH 7.4
  Papp A→B at 2 h, 1 µM: 0.6 ×10⁻⁶ cm/s
  Papp B→A at 2 h, 1 µM: 0.5 ×10⁻⁶ cm/s
[2]
  IC50: 420 nM
[3]
  IC50: 620 nM
[4]; Table 4g, 116 mg/kg oral gavage days 1-3
  % change from vehicle control + choline diet: −90%
[4]; Table 4g, 116 mg/kg oral gavage days 1-3, plasma 20 h after last gavage
  Mean plasma TMAO: 2.71 µM

## C[N+](C)(CCO)CC1CC1.[Br-] [Compound 107, N-(cyclopropylmethyl)-2-hydroxy-N,N-dimethylethan-1-aminium Bromide]
[1]; [5]
  Papp A→B at 2 h, 1 µM: 26.8 ×10⁻⁶ cm/s
[1]; [6]
  Papp B→A at 2 h, 1 µM: 31.1 ×10⁻⁶ cm/s
[2]
  IC50: ≥ 10000 nM
[3]
  IC50: ≥ 10000 nM

## C#CC[N+](C)(C)CCO.[Br-] [Compound J60, N-(2-hydroxyethyl)-N,N-dimethylprop-2-yn-1-aminium Iodide]
[1]; [5]
  Papp A→B at 2 h, 1 µM: 11.1 ×10⁻⁶ cm/s
[1]; [6]
  Papp B→A at 2 h, 1 µM: 6.23 ×10⁻⁶ cm/s
[4]; Table 4a, 10 mg/kg oral gavage days 1-3
  % change from vehicle control + choline diet: −28.46%
[4]; Table 4a, 10 mg/kg oral gavage days 1-3, plasma 20 h after last gavage
  Mean plasma TMAO: 31.06 µM
[4]; Table 4a, 33 mg/kg oral gavage days 1-3
  % change from vehicle control + choline diet: −60.39%
[4]; Table 4a, 33 mg/kg oral gavage days 1-3, plasma 20 h after last gavage
  Mean plasma TMAO: 17.20 µM
[4]; Table 4a, 100 mg/kg oral gavage days 1-3
  % change from vehicle control + choline diet: −87.29%
[4]; Table 4a, 100 mg/kg oral gavage days 1-3, plasma 20 h after last gavage
  Mean plasma TMAO: 5.52 µM
[4]; Table 4b, 10 mg/kg oral gavage days 1-3, plasma 20 h after last gavage, 10 mg/kg
  Mean plasma TMAO: 27.4 µM and 24.7 µM
[4]; Table 4c, 100 mg/kg oral gavage days 1-3
  % change from vehicle control + choline diet: −74.22%
[4]; Table 4c, 100 mg/kg oral gavage days 1-3, plasma 20 h after last gavage
  Mean plasma TMAO: 5.41 µM
[4]; Table 4e, 100 mg/kg oral gavage days 1-3
  % change from vehicle control + choline diet: −86%
[4]; Table 4e, 100 mg/kg oral gavage days 1-3, plasma 20 h after last gavage
  Mean plasma TMAO: 3.81 µM
[4]; Table 4f, 100 mg/kg oral gavage days 1-3
  % change from vehicle control + choline diet: −81%
[4]; Table 4f, 100 mg/kg oral gavage days 1-3, plasma 20 h after last gavage
  Mean plasma TMAO: 6.20 µM
[4]; Table 4g, 100 mg/kg oral gavage days 1-3
  % change from vehicle control + choline diet: −53%
[4]; Table 4g, 100 mg/kg oral gavage days 1-3, plasma 20 h after last gavage
  Mean plasma TMAO: 13.1 µM
[4]; Table 4h, 100 mg/kg oral gavage days 1-3
  % change from vehicle control + choline diet: −80%
[4]; Table 4h, 100 mg/kg oral gavage days 1-3, plasma 20 h after last gavage
  Mean plasma TMAO: 8.72 µM
[4]; Table 4d, 100 mg/kg oral gavage days 1-3
  % change from vehicle control + choline diet: −68%
[4]; Table 4d, 100 mg/kg oral gavage days 1-3, plasma 20 h after last gavage
  Mean plasma TMAO: 6.00 µM

## C#CC[N+](C)(CF)CCO[C@@H]1O[C@H](COC(C)=O)[C@@H](OC(C)=O)[C@H](OC(C)=O)[C@H]1OC(C)=O (stereo partly drawn) [Compound 77, (fluoromethyl)(methyl)(prop-2-yn-1-yl)(2-{[(2R,3R,4S,5R,6R)-3,4,5-tris(acetyloxy)-6-[(acetyloxy)methyl]oxan-2-yl]oxy}ethyl)azanium]
[1]; [5]
  Papp A→B at 2 h, 1 µM: 0.218 ×10⁻⁶ cm/s
[1]; [6]
  Papp B→A at 2 h, 1 µM: 0.337 ×10⁻⁶ cm/s
[3]
  IC50: ≥ 10000 nM
